Measurements as given in publication PMC10157742, “Supramolecular nanofibers co-loaded with dabrafenib and doxorubicin for targeted and synergistic therapy of differentiated thyroid carcinoma” (Theranostics, 2023).

How the values were obtained:
[1] = test system: BCPAP cells; test: In vitro cytotoxicity, MTT assay; format: cell-based; settings: Homo sapiens, 48 h, Da/Dox mass ratio 1:1, value given for Dox, n = 3
Method: The cytotoxicity of peptides, free agents, and the co-assemblies towards BCPAP and L02 cells was evaluated using the standard MTT assay. Briefly, the cells were seeded into 96-well plates at a density of 8×10^3 cells per well in 100μL of DMEM medium containing 10% FBS and 1% penicillin-streptomycin. After overnight pre-incubation, the cells were treated with the compound, free agents, and co-assemblies at different concentrations for 48 h. Untreated tumor cells were used as controls. Subsequently, the medium was replaced with an MTT solution (100 μL, 0.5 mg/mL) and further cultured for 4 h. Finally, the supernatant was removed and 100 μL of DMSO was added to each well to dissolve the purple crystals. Cell viability was measured using a microplate reader by recording the absorbance of the formazan product at 570 nm.

[2] = test system: BCPAP cells; test: Cell apoptosis analysis, Annexin V-APC/7-AAD flow cytometry; format: cell-based, human; settings: 36 h, 0.5 µM (Dox or Da)
Method: Apoptosis in BCPAP cells was measured using an Annexin V-APC/7-AAD Apoptosis Detection Kit. Briefly, BCPAP cells in DMEM were seeded into 6-well plates at a density of 3×10^5 cells per well and incubated overnight. After treatment with PBS and Dox concentration of 0.5 µM for 36 h, the cells were trypsinized, collected, washed twice with cold PBS, and centrifuged at 1500 rpm for 5 min. The precipitated cells were resuspended in 500 μL Annexin V-APC binding buffer and incubated with 5 μL Annexin V-APC and 5 μL 7-AAD at room temperature for 15 min in the dark. The samples were then analyzed using a flow cytometer.

[3] = test system: BCPAP xenograft; test: In vivo antitumor activity; settings: NSG mice, i.v. every four days five times, 0.5 mg/kg Dox or Da, day 20, mean ± SD, n = 4
Method: (§1) All animal experiments were performed according to the protocol approved by the Animal Care and Use Committee of the Tianjin Medical University Cancer Institute and Hospital. NSG mice (5 weeks, female) were purchased from Gempharmatech Co., Ltd. (Jiangsu, China). […] The body weight and tumor size of each mouse were monitored and recorded every two days during the treatment process of 20 days. The tumor volume (V) was measured with a digital caliper and calculated using the equation: V= (L×W^2)/2, where W and L refer to the […] diameters of the tumors, respectively. At the end of the experiment, the mice were euthanized, and the tumor tissues and main organs (heart, liver, spleen, lung, and kidney) were photographed, weighed, and collected. Furthermore, the collected ex vivo tumors and main organs were fixed with 4% paraformaldehyde for the subsequent hematoxylin and eosin (H&E), terminal deoxynucleotidyl transferase-mediated deoxyuridine triphosphate nick end labeling (TUNEL), and immunohistochemical staining, including Ki67, BRAF V600E, p-ERK, Bcl-2, Bax and Cleaved-Caspase 3. Blood was obtained from the mouse eye socket for blood biochemistry and routine blood analysis, which was compared with the blank group without tumor inoculation.

[4] = Body weight and serum ALT in the antitumor study; format: in vivo; settings: tumor-bearing NSG mice, n = 4
Method: as §1

SMILES | IC50 [1] | total apoptosis rate [2] | tumor weight at the end of the experiment [3] | body weight ([4]; 0.5 mg/kg i.v. every four days five times, 20 days) | serum glutamic pyruvic transaminase (ALT) level ([4]; end of the antitumor experiment)
CC(C)(C)c1nc(-c2cccc(NS(=O)(=O)c3c(F)cccc3F)c2F)c(-c2ccnc(N)n2)s1 [Da, dabrafenib] | 2080 nM | 5.17% | 459.6 ± 43.2 mg | – | –
COc1cccc2c1C(=O)c1c(O)c3c(c(O)c1C2=O)C[C@@](O)(C(=O)CO)C[C@@H]3O[C@H]1C[C@H](N)[C@H](O)[C@H](C)O1 [Dox, doxorubicin] | 1720 nM | 7.08% | 284.7 ± 36.4 mg | slight decrease | elevated ALT levels
